# According to patent US10450260B2, “NO- and H2S-releasing compounds” (RESEARCH FOUNDATION OF THE CITY UNIVERSITY OF NEW YORK, priority 2011, dated 2019):
# Where two headings read alike, the source gives them in different places.
# Tests used:
# Assay type in all cases: cell-based
# [1] = test system: LNCAP human prostate cancer; experiment: MTT cell growth inhibition, LNCAP; settings: for IC50: Homo sapiens, LNCaP; for Ratio NSAID/NOSH-NSAID, LNCAP: fold-enhancement in potency over the parent compound
# Experimental: (§1) HT-29, SW-480 and HCT-15 human colon adenocarcinoma, MIA PaCa-2 and BxPC-3 human pancreatic cancer, LNCAP human prostate cancer, A549 human lung cancer, MCF-7 (estrogen receptor positive), MDA-MB 231 and SK-BR-3 (estrogen receptor negative) human breast cancer, and Jurkats human leukemia cell lines were obtained from American Type Tissue Collection (Manassas, Va.). All cells lines were grown as monolayers except for the Jurkats which were grown in suspension. The pancreatic and breast cancer cells were grown in Dulbecco's modified Eagle's medium, the prostate, Jurkat, SW-480 and HCT-15 colon cells were grown in RPMI 1640 medium, the lung cells were grown in F-12 and the colon HT-29 cells were grown in McCoy 5A. All media were supplemented with 10% fetal calf serum (Invitrogen, Carlsbad, Calif.) penicillin (50 U/ml), and streptomycin (50 μg/ml) (Invitrogen, Carlsbad, Calif.). Cells were seeded on culture dishes at a density of 25×10^3 cells/cm^2 and incubated at 37° C. in 5% CO2 and 90% relative humidity. Single cell suspensions were obtained by trypsinization (0.05% trypsin/EDTA), and cells were counted using a hemocytometer. Viability was determined by the trypan blue dye exclusion method.
# (§2) Cell growth inhibitory effect of NOSH compounds were measured using a colorimetric MTT assay kit (Roche, Indianapolis, Ind.). Cancer cells were plated in 96-well plates at a density of 50,000 cells/well. The cells were incubated for 24 h with different concentrations of NOSH compounds. After the indicated time, 10 μl of MTT dye (3-[4,5-dimethylthiazol-2-yl]-2,5-diphenyl tetrazolium bromide, 5 mg/ml in phosphate buffered saline), was added to each well, and the plates were incubated for 2 hours at 37° C. Then, the media was aspirated, and add 100 μl of the solubilization solution (10% SDS in 0.01 M HCl) was added to each well to solubilize the formant crystals. The absorbance of the plates was measured on an ELISA reader at a wavelength of 570 nm. Each sample was performed in triplicate, and the entire experiment was repeated three times.
# (§3) HT-29, SW-480 and HCT-15 human colon adenocarcinoma, MIA PaCa-2 and BxPC-3 human pancreatic cancer, LNCAP human prostate cancer, A549 and H383 human lung cancer, MCF-7, MDA-MB 231 and SK-BR-3 human breast cancer and Jurkat T cell human leukemia cell lines were obtained from American Type Tissue Collection (Manassas, Va.) All cells lines were grown as monolayers except for the Jurkat T cells which were grown as suspension culture. The pancreatic and breast cancer cells were grown in Dulbecco's modified Eagle's medium, the prostate, Jurkat, SW-480 and HCT-15 colon cells were grown in RPMI 1640 medium, the lung cells were grown in F-12 and the colon HT-29 cells were grown in McCoy 5A. All media were supplemented with 10% fetal calf serum (Invitrogen, Carlsbad, Calif.) penicillin (50 U/ml), and streptomycin (50 μg/ml) (Invitrogen, Carlsbad, Calif.). Cells were seeded on culture dishes at a density of 25×10^3 cells/cm^2 and incubated at 37° C. in 5% CO2 and 90% relative humidity. Single cell suspensions were obtained by trypsinization (0.05% trypsin/EDTA), and cells were counted using a hemacytometer. The final DMSO concentration was adjusted in all media to 1%. Viability was determined by the trypan blue dye exclusion method.
# (§4) Cell growth inhibitory effect of all NOSH-NSAIDs was measured using a colorimetric MTT assay kit (Roche, Indianapolis, Ind.). Cancer cells were plated in 96-well plates at a density of 30,000-50,000 cells/well depending on cell type. The cells were incubated for 24 hours with different concentrations of NOSH-NSAIDs. After the indicated time, 10 μL of MTT dye (3-[4,5-dimethylthiazol-2-yl]-2,5-diphenyl tetrazolium bromide, 5 mg/mL in phosphate buffered saline), was added to each well, and the plates were incubated for 2 hours at 37° C. Then, the media was aspirated, and 100 μL of the solubilization solution (10% SDS in 0.01 M HCl) was added to each well to solubilize the formant crystals. […]
# [2] = test system: SK-BR-3 human breast cancer; experiment: MTT cell growth inhibition, SKBR3; settings: for IC50: Homo sapiens, SK-BR-3; for Ratio NSAID/NOSH-NSAID, SKBR3: fold-enhancement in potency over the parent compound
# Experimental: All cells lines were grown as monolayers except for the Jurkats which were grown in suspension. […] All media were supplemented with 10% fetal calf serum (Invitrogen, Carlsbad, Calif.) penicillin (50 U/ml), and streptomycin (50 μg/ml) (Invitrogen, Carlsbad, Calif.). Cells were seeded on culture dishes at a density of 25×10^3 cells/cm^2 and incubated at 37° C. in 5% CO2 and 90% relative humidity. Single cell suspensions were obtained by trypsinization (0.05% trypsin/EDTA), and cells were counted using a hemocytometer. Viability was determined by the trypan blue dye exclusion method.
# as §2
# All media were supplemented with 10% fetal calf serum (Invitrogen, Carlsbad, Calif.) penicillin (50 U/ml), and streptomycin (50 μg/ml) (Invitrogen, Carlsbad, Calif.). Cells were seeded on culture dishes at a density of 25×10^3 cells/cm^2 and incubated at 37° C. in 5% CO2 and 90% relative humidity. Single cell suspensions were obtained by trypsinization (0.05% trypsin/EDTA), and cells were counted using a hemacytometer. The final DMSO concentration was adjusted in all media to 1%. Viability was determined by the trypan blue dye exclusion method.
# Cell growth inhibitory effect of all NOSH-NSAIDs was measured using a colorimetric MTT assay kit (Roche, Indianapolis, Ind.). Cancer cells were plated in 96-well plates at a density of 30,000-50,000 cells/well depending on cell type. The cells were incubated for 24 hours with different concentrations of NOSH-NSAIDs. After the indicated time, 10 μL of MTT dye (3-[4,5-dimethylthiazol-2-yl]-2,5-diphenyl tetrazolium bromide, 5 mg/mL in phosphate buffered saline), was added to each well, and the plates were incubated for 2 hours at 37° C. Then, the media was aspirated, and 100 μL of the solubilization solution (10% SDS in 0.01 M HCl) was added to each well to solubilize the formant crystals. The absorbance of the plates was measured on a spectrophotometric plate reader at a wavelength of 570 nm. Each experiment was performed in triplicate, and the entire experiment was repeated three times.
# [3] = test system: BxPC-3 human pancreatic cancer; experiment: MTT cell growth inhibition, BxPC3; settings: for IC50: Homo sapiens, BXPC-3, read-out: IC50 for cell growth inhibition, Pancreas BxPC3; for Ratio NSAID/NOSH-NSAID, BxPC3: fold-enhancement in potency over the parent compound
# Experimental: as §1, §2, §3, §4
# [4] = test system: MIA PaCa-2 human pancreatic cancer; experiment: MTT cell growth inhibition, MIA PaCa2; settings: for IC50: Homo sapiens, MIA PaCa-2; for Ratio NSAID/NOSH-NSAID, MIAPaCa2: fold-enhancement in potency over the parent compound
# Experimental: as §1, §2, §3, §4
# [5] = 24 hours (Table 7), read-out: IC50 for cell growth inhibition, Pancreas MIAPaCa2
# [6] = 24 hours, read-out: IC50 for cell growth inhibition, Pancreas MIA PaCa2
SMILES,IC50 ([1]; 24 hours (Table 7)) [µM],"Ratio NSAID/NOSH-NSAID, LNCAP [1]",IC50 ([2]; 24 hours (Table 7)) [µM],"Ratio NSAID/NOSH-NSAID, SKBR3 [2]",IC50 ([3]; 24 hours (Table 7)) [µM],"Ratio NSAID/NOSH-NSAID, BxPC3 [3]","IC50 [4, 5] [µM]","Ratio NSAID/NOSH-NSAID, MIAPaCa2 [4]",IC50 ([1]; 24 hours) [µM],IC50 ([2]; 24 hours) [µM],IC50 ([3]; 24 hours) [µM],"IC50 [4, 6] [µM]"
"CC(C(=O)Oc1ccc(-c2cc(=S)ss2)cc1)c1ccc2cc(OC(=O)CCCO[N+](=O)[O-])ccc2c1 (centres unmarked) [NOSH-7, 6-(1-oxo-1-(4-(3-thioxo-3H-1,2-dithiol-5-yl)phenoxy)propan-2-yl)naphthalen-2-yl 4-(nitrooxy)butanoate]",0.13,"23,000",0.1,"28,900",0.08,"30,625",0.095,"33,684",–,–,–,–
"O=C(CCCO[N+](=O)[O-])Oc1ccccc1C(=O)Oc1ccc(-c2cc(=S)ss2)cc1 [NOSH-1, 4-(3-thioxo-3H-1,2-dithiol-5-yl)phenyl 2-((4-(nitrooxy)butanoyl)oxy)benzoate]",–,–,–,–,–,–,–,–,0.088 ± 0.008,0.075 ± 0.005,0.057 ± 0.004,0.047 ± 0.005
"O=C(CCCC[C@@H]1CCSS1)Oc1ccccc1C(=O)OCCCCO[N+](=O)[O-] [NOSH-4, (R)-4-(nitrooxy)butyl 2-((5-(1,2-dithiolan-3-yl)pentanoyl)oxy)benzoate]",–,–,–,–,–,–,–,–,0.5 ± 0.018,0.55 ± 0.028,0.7 ± 0.032,0.8 ± 0.039
"CC1=C(CC(=O)Oc2ccc(OC(=O)CCCO[N+](=O)[O-])c(C(=O)Oc3ccc(-c4cc(=S)ss4)cc3)c2)c2cc(F)ccc2/C1=C/c1ccc([S+](C)[O-])cc1 (centres unmarked) [NOSH-8, (E)-4-(3-thioxo-3H-1,2-dithiol-5-yl)phenyl 5-(2-(5-fluoro-2-methyl-1-(4-(methylsulfinyl)benzylidene)-1H-inden-3-yl)acetoxy)-2-((4-(nitrooxy)butanoyl)oxy)benzoate]",0.09,"9,000",0.12,"7,041",0.11,"8,818",0.098,"8,081",–,–,–,–
"O=C(CCC(=O)Oc1ccccc1C(=O)Oc1ccc(-c2cc(=S)ss2)cc1)OCCCCO[N+](=O)[O-] [NOSH-2, 4-(nitrooxy)butyl (2-((4-(3-thioxo-3H-1,2-dithiol-5-yl)phenoxy)carbonyl)phenyl) succinate]",–,–,–,–,–,–,–,–,0.1 ± 0.012,0.088 ± 0.007,0.1 ± 0.009,0.102 ± 0.018
"COc1ccc2cc([C@H](C)C(=O)O)ccc2c1 [naproxen, reference compound]",–,–,–,–,2450,–,3200,–,–,–,–,–
"NC(=S)c1ccc(OC(=O)c2ccccc2OC(=O)CCCO[N+](=O)[O-])cc1 [NOSH-3, 4-carbamothioylphenyl 2-((4-(nitrooxy)butanoyl)-oxy)benzoate]",–,–,–,–,–,–,–,–,4.3 ± 0.212,6.5 ± 0.268,5.5 ± 0.39,4.8 ± 0.322
"CC1=C(CC(=O)O)c2cc(F)ccc2/C1=C\c1ccc([S+](C)[O-])cc1 (centres unmarked) [sulindac, reference compound]",810,–,845,–,970,–,792,–,–,–,–,–
